System: patient with atopic dermatitis
Test: Topical treatment of itching in atopic dermatitis
Assay type: in vivo
Conditions: human, indomethacin cream 7.5 mg/g at 75 μg/cm^2
Experimental: An aqueous solution (10-100 μg/ml) of a compound of Formula (I) is applied topically to the skin lesions on the arms or legs of a patient with atopic dermatitis which had caused severe itching (ranked as “+++” by the patient prior to treatment). The drug solution is applied on five spots with a volume of about 50 μl per 10 cm^2, which was equivalent to a topical dose of […]. As a control, indomethacin cream (concentration of 7.5 mg/g) applied at a dose of 75 μg/cm^2 in the same manner. Itching intensity is evaluated immediately after treatment, 5 minutes after treatment and at hourly time points for several hours following treatment. […] Itch relief typically continues for several hours following treatment.

With `COc1ccc2c(c1)c(CC(=O)O)c(C)n2C(=O)c1ccc(Cl)cc1` [indomethecin, indomethacin] the “Effect on itch (control)” value was “reduces but fails to eliminate itch”.
